Usually Ki stands for the equilibrium dissociation constant of an inhibitor or competing ligand from its target.

Consider 14 molecules from patent US9365548B2, “Benzoimidazol-2-yl pyrimidines and pyrazines as modulators of the histamine H4 receptor” (Janssen Pharmaceutica NV, priority 2006, dated 2016).

SMILES strings stand for the structures.

In the test the target is T1, Recombinant Human Histamine H4 Receptor (Homo sapiens, UniProt Q9H3N8).
T1 construct: expressed in transfected cells; host or cells: SK-N-MC cells or COS7 cells, transiently transfected; cell membranes used
T1 sequence (Q9H3N8 whole entry): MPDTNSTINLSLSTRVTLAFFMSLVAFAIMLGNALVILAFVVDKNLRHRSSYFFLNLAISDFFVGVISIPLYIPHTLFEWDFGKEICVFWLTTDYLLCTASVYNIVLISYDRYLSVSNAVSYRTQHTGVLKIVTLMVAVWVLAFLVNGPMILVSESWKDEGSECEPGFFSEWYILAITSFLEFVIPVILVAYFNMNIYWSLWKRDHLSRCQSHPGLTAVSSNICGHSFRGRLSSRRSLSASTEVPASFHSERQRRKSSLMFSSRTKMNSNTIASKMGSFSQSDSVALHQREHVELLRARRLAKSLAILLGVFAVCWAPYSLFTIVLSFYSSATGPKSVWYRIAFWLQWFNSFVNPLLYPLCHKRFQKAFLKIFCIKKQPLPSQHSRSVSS
Kind of test: Binding Assay on Recombinant Human Histamine H4 Receptor. Conditions: competition binding with 3H-histamine, membranes of SK-N-MC or COS7 cells expressing human histamine H4 receptor; Ki by Cheng-Prusoff (KD 5 nM, ligand 5 nM); average of results obtained. The text has this: Additional examples of embodiments of this invention are provided by hemitartrate salts of compounds of Formula (I) and by hydrates, such as monohydrates and dihydrates, of compounds of Formula (I). […]
Take `CCc1nc(NCCCC2CCN(C)CC2)ncc1-c1nc2c(C)cccc2[nH]1` [Example 43, [4-Ethyl-5-(4-methyl-1H-benzoimidazol-2-yl)-pyrimidin-2-yl]-[3-(1-methyl-piperidin-4-yl)-propyl]-amine]: the Ki was 110 nM.

In the case of `Cc1nc(NCCCC2CCN(C)CC2)ncc1-c1nc2c(F)cc(F)cc2[nH]1` [Example 6, [5-(4,6-Difluoro-1H-benzoimidazol-2-yl)-4-methyl-pyrimidin-2-yl]-[3-(1-methyl-piperidin-4-yl)-propyl]-amine], the Ki came out at 17 nM.

In the case of `COc1ccc2[nH]c(-c3cnc(NCCCC4CCN(C)CC4)nc3C)nc2c1` [Example 37, [5-(5-Methoxy-1H-benzoimidazol-2-yl)-4-methyl-pyrimidin-2-yl]-[3-(1-methyl-piperidin-4-yl)-propyl]-amine], the Ki was found to be 81 nM. The same measure for `Cc1cc(C)c2nc(-c3cnc(NCCCC4CCN(C)CC4)nc3C3CCC3)[nH]c2c1` [Example 17, [4-Cyclobutyl-5-(4,6-dimethyl-1H-benzoimidazol-2-yl)-pyrimidin-2-yl]-[3-(1-methyl-piperidin-4-yl)-propyl]-amine]: 1320 nM. Regarding `Cc1cc(C)c2nc(-c3cnc(NCCCC4CCN(C)CC4)nc3C(C)C)[nH]c2c1` [Example 12, [5-(4,6-Dimethyl-1H-benzoimidazol-2-yl)-4-isopropyl-pyrimidin-2-yl]-[3-(1-methyl-piperidin-4-yl)-propyl]-amine], the Ki was 200 nM. `Cc1nc(NCCCC2CCN(C)CC2)ncc1-c1nc2cc(F)ccc2[nH]1` [Example 23, [5-(5-Fluoro-1H-benzoimidazol-2-yl)-4-methyl-pyrimidin-2-yl]-[3-(1-methyl-piperidin-4-yl)-propyl]-amine]: the Ki was 59 nM. Then `Cc1nc(NCCCC2CCN(C)CC2)ncc1-c1nc2c(F)c(F)ccc2[nH]1` [Example 4, [5-(4,5-Difluoro-1H-benzoimidazol-2-yl)-4-methyl-pyrimidin-2-yl]-[3-(1-methyl-piperidin-4-yl)-propyl]-amine], with 11 nM; and `Cc1c(F)ccc2[nH]c(-c3cnc(NCCCC4CCN(C)CC4)nc3C(C)C)nc12` [Example 20, [5-(5-Fluoro-4-methyl-1H-benzoimidazol-2-yl)-4-isopropyl-pyrimidin-2-yl]-[3-(1-methyl-piperidin-4-yl)-propyl]-amine], with 230 nM; and `Cc1ccc2[nH]c(-c3cnc(NCCCC4CCN(C)CC4)nc3C3CC3)nc2c1C` [Example 45, [4-Cyclopropyl-5-(4,5-dimethyl-1H-benzoimidazol-2-yl)-pyrimidin-2-yl]-[3-(1-methyl-piperidin-4-yl)-propyl]-amine], with 390 nM.

Turning to `Cc1nc(NCCCC2CCN(C)CC2)ncc1-c1nc2cc(C(F)(F)F)ccc2[nH]1` [Example 24, [3-(1-Methyl-piperidin-4-yl)-propyl]-[4-methyl-5-(5-trifluoromethyl-1H-benzoimidazol-2-yl)-pyrimidin-2-yl]-amine], the Ki is 12 nM. Then `Cc1nc(NCCCC2CCN(C)CC2)ncc1-c1nc2c(C)c(Cl)ccc2[nH]1` [Example 26, [5-(5-Chloro-4-methyl-1H-benzoimidazol-2-yl)-4-methyl-pyrimidin-2-yl]-[3-(1-methyl-piperidin-4-yl)-propyl]-amine], with 13 nM. With `CCCc1nc(NCCCC2CCN(C)CC2)ncc1-c1nc2c(C)c(C)ccc2[nH]1` [Example 18, [5-(4,5-Dimethyl-1H-benzoimidazol-2-yl)-4-propyl-pyrimidin-2-yl]-[3-(1-methyl-piperidin-4-yl)-propyl]-amine], the Ki turned out to be 2410 nM. The same measure for `Cc1nc(NCCCC2CCN(C)CC2)ncc1-c1nc2c(C)cc(F)cc2[nH]1` [Example 3, [5-(6-Fluoro-4-methyl-1H-benzoimidazol-2-yl)-4-methyl-pyrimidin-2-yl]-[3-(1-methyl-piperidin-4-yl)-propyl]-amine]: 4 nM; for `Cc1c(F)ccc2[nH]c(-c3cnc(NCCCC4CCN(C)CC4)nc3C3CC3)nc12` [Example 48, [4-Cyclopropyl-5-(5-fluoro-4-methyl-1H-benzoimidazol-2-yl)-pyrimidin-2-yl]-[3-(1-methyl-piperidin-4-yl)-propyl]-amine]: 140 nM.
